{
  "source": "patent US7198942B2",
  "about": "“Acetylcholine receptor subunits” (Bayer CropScience LP, priority 2000, dated 2007)",
  "key": {"[1]": {"test_system": "receptors comprising unmodified Heliothis α1 subunits and chicken β2 subunits", "experiment": "Dual electrode voltage clamp on Xenopus oocytes expressing Heliothis α1/chicken β2 receptors", "assay_type": "cell-based, Heliothis virescens / chicken", "conditions": "membrane voltage −80 mV, FIG. 2C", "experimental": "(§1) Xenopus oocytes were isolated and prepared as previously described (Bertrand et al. 1991). On the first day after isolation of the oocytes, in each case 10 nl of a solution with 2 ng of an appropriate cDNA expression vector were injected into the cell nuclei of the oocytes. The oocytes were kept at 19° C. in a suitable medium (BARTH solution consisting (in mM) of NaCl 88, KCl 1, NaHCO3 2.4, MgSO4 0.82, Ca(NO3)2 0.33, CaCl2 0.41, HEPES 10, pH 7.4) for 3–5 days. After this time, the electrophysiological experiments were carried out.\nElectrophysiological recordings were carried out using a dual electrode voltage clamp by tried and tested methods which are well known (compare Bertrand et al. 1992). Each oocyte was placed singly in a measurement chamber and pierced by two microelectrodes. […] The membrane voltage was fixed at −80 mV using a voltage clamp amplifier (TEC-00, npi, Tamm, Germany), and the inward current flowing through the cell membrane was measured and recorded by computer. […]\n(§2) In order to characterize the sensitivity of the modified receptors to acetylcholine and imidacloprid in more detail, dose-effect plots were recorded by repeating the experiment described above with different concentrations of the substance."}, "[2]": {"biological_target": "T1, receptors consisting of the chicken β2 subunit and polypeptide according to SEQ ID NO: 11 (Gallus gallus, UniProt P09482+P09484, A209V/D197E/E200T/E219T/G202V/G211A/I207L/I224P/K217F/L196S/N208E/N212V/P226L/Q195L/S215E/S231N/T222D/V205D/V210P/W199Y/Y198F/Y213R/Y230F)", "T1 construct": "expressed in transfected cells; host or cells: Xenopus oocytes (nuclear injection of cDNA expression vectors)", "assay_type": "cell-based, Heliothis virescens / chicken", "conditions": "Xenopus oocytes, membrane voltage −80 mV", "experimental": "as §1\n(§3) Electrophysiological recordings were carried out using a dual electrode voltage clamp by tried and tested methods which are well known (compare Bertrand et al. 1992). Each oocyte was placed singly in a measurement chamber and pierced by two microelectrodes. […] The membrane voltage was fixed at −80 mV using a voltage clamp amplifier (TEC-00, npi, Tamm, Germany), and the inward current flowing through the cell membrane was measured and recorded by computer. Frog Ringer solution containing 115 mM NaCl; 2.5 mM KCl; 1.8 mM CaCl2; 10 mM HEPES; at pH 7.4 (adjusted with NaOH) flowed at a flow rate of 5–10 ml/minute through the measurement chamber. In order to test acetylcholine, imidacloprid or another active substance on these oocytes, the substance was added in the intended concentration to the frog Ringer solution and the perfusion of the measurement chamber was briefly changed over to this test solution. Acetylcholine (Fluka, Buchs, Switzerland) was stored as stock solution at −20° C. and added to the measurement solution immediately before the experiment.\n(§4) In this case it is immediately evident from the occurrence of an additional inward current signal whether the receptor variant expressed in the particular oocyte can be activated by imidacloprid or not.\nas §2"}, "[3]": {"biological_target": "T2, receptors consisting of the chicken β2 subunit and polypeptide according to SEQ ID NO: 3 (Gallus gallus, UniProt P09482+P09484, A129E/D127N/D141T/F139N/F162Y/H132L/H137T/I144V/K145E/K171V/L133A/M147R/N169T/S157E/T161E)", "T2 construct": "expressed in transfected cells; host or cells: Xenopus oocytes (nuclear injection of cDNA expression vectors)", "assay_type": "cell-based, Heliothis virescens / chicken", "conditions": "Xenopus oocytes, membrane voltage −80 mV, FIG. 2A", "experimental": "as §1, §3, §4, §2"}, "[4]": {"biological_target": "T3, receptors consisting of the chicken β2 subunit and polypeptide according to SEQ ID NO: 7 (Gallus gallus, UniProt P09482+P09484, INS192RGTNVVELG)", "T3 construct": "expressed in transfected cells; host or cells: Xenopus oocytes (nuclear injection of cDNA expression vectors)", "assay_type": "cell-based, Heliothis virescens / chicken", "conditions": "Xenopus oocytes, membrane voltage −80 mV", "experimental": "as §1, §3, §4, §2"}, "[5]": {"biological_target": "T4, receptor containing polypeptide shown in SEQ ID NO: 3 and the chicken β2 subunit (Gallus gallus, UniProt P09482+P09484, A129E/D127N/D141T/F139N/F162Y/H132L/H137T/I144V/K145E/K171V/L133A/M147R/N169T/S157E/T161E)", "T4 construct": "expressed in transfected cells; host or cells: Spodoptera frugiperda Sf9 cells (transient, DAC-30; GFP co-transfected as a marker)", "experiment": "Whole-cell recordings on transfected Sf9 cells, SEQ ID NO: 3/chicken β2", "assay_type": "cell-based, Heliothis virescens / chicken", "conditions": "−70 mV", "description": "Spodoptera frugiperda 9 (Sf9) cells were transfected simultaneously with cDNA expression plasmids which code for the modified heliothis/chicken subunit and for the chicken β2 subunit using a liposomal transfection reagent (DAC-30, Eurogentec, Belgium). A cDNA expression construct for the green fluorescent protein from Aequoria victoria was transfected simultaneously. This makes it possible simply to identify transfected cells because experience has shown that most of the cells which have taken up one of the constructs have also taken up the other ones. 24 to 48 hours after transfection, the currents through the cell membrane of the Sf9 cells were measured by whole-cell recordings. For this purpose, the potential difference across the cell membrane was kept constant at −70 mV. Substances were applied using the U-tube reversed flow technique (Fenwick 1982). The volume of the experimental chamber, which was continuously perfused with bath solution (3 ml/min), was less than 0.5 ml. […] The pipette solution contained (in mM): 150 KCl, 10 HEPES 10 K-EGTA (pH 7.2). The microelectrodes were produced in an electrode puller (Zeitz, Germany) from borosilicate glass blanks (external diameter 1.6 mm, Hilgenberg, Germany). The resistance of the flame-polished microelectrodes on use of the abovementioned pipette and bath solutions was between 4 and 6 MΩ. […]"}, "[6]": {"biological_target": "chicken α4 subunit and the chicken β2 subunit (Gallus gallus, UniProt P09482+P09484)", "experiment": "Whole-cell recordings on transfected Sf9 cells, chicken α4/β2", "assay_type": "cell-based", "conditions": "−70 mV"}, "[7]": {"test_system": "Untransfected control cells (Sf9)", "experiment": "Whole-cell recordings on untransfected Sf9 control cells", "assay_type": "cell-based, Spodoptera frugiperda", "conditions": "untransfected Sf9 control cells in the same experiment", "description": "Spodoptera frugiperda 9 (Sf9) cells were transfected simultaneously with cDNA expression plasmids which code for the modified heliothis/chicken subunit and for the chicken β2 subunit using a liposomal transfection reagent (DAC-30, Eurogentec, Belgium). A cDNA expression construct for the green fluorescent protein from Aequoria victoria was transfected simultaneously. This makes it possible simply to identify transfected cells because experience has shown that most of the cells which have taken up one of the constructs have also taken up the other ones. 24 to 48 hours after transfection, the currents through the cell membrane of the Sf9 cells were measured by whole-cell recordings. For this purpose, the potential difference across the cell membrane was kept constant at −70 mV. Substances were applied using the U-tube reversed flow technique (Fenwick 1982). […]\nTo check whether expression of the cDNAs which code for the modified heliothis/chicken subunit shown in SEQ ID NO: 3 and the chicken β2 subunit led to the production of functional acetylcholine receptors in the cells, whole-cell recordings were carried out by the method described above, during which the cells were stimulated with acetylcholine (1000 μM) or imidacloprid (100 μM). […] In order to quantify the results, a series of experiments was carried out with 5 measurements. […]"}},
  "data": [
    {"smiles": "O=[N+]([O-])NC1=NCCN1Cc1ccc(Cl)nc1", "note": "[imidacloprid]", "values": [
      {"measurement": "sensitivity (ligand-induced conductance)", "setting": "[1]", "result": "sensitive"},
      {"measurement": "ligand-induced conductance / sensitivity", "setting": "[2]", "result": "only the receptors consisting of the chicken β2 subunit and polypeptides according to SEQ ID NO: 3 are sensitive to imidacloprid"},
      {"measurement": "ligand-induced conductance / sensitivity", "setting": "[3]", "result": "sensitive"},
      {"measurement": "ligand-induced conductance / sensitivity", "setting": "[4]", "result": "only the receptors consisting of the chicken β2 subunit and polypeptides according to SEQ ID NO: 3 are sensitive to imidacloprid"},
      {"measurement": "inward currents after stimulus", "setting": "[5]; 100 μM imidacloprid, FIG. 3", "result": "strong inward currents"},
      {"measurement": "amplitude ratio (maximum amplitude on 100 μM imidacloprid divided by maximum amplitude on 1000 μM acetylcholine)", "setting": "[5]; n=5 cells", "result": "0.46±0.09"},
      {"measurement": "inward currents on application", "setting": "[6]; 100 μM imidacloprid", "result": "either no or only very weak inward currents"},
      {"measurement": "amplitude ratio (maximum amplitude on 100 μM imidacloprid divided by maximum amplitude on 1000 μM acetylcholine)", "setting": "[6]; n=5 cells", "result": "0.05±0.06"},
      {"measurement": "response (inward current)", "setting": "[7]", "result": "no response"}
    ]},
    {"smiles": "CC(=O)OCC[N+](C)(C)C", "note": "[acetylcholine]", "values": [
      {"measurement": "response (inward current)", "setting": "[7]", "result": "no response"}
    ]}
  ]
}
